Reference: patent EP0908457B1, “3-(1,2-benzisothiazol- and isoxazol-5-Y1)-2,4(1H,3H)-pyrimidinedione or thione and 3-(1,2-benzisothiazol- and isoxazol-5-y1)-4(3H)-pyrimidinone or thione herbicidal agents” (BASF AKTIENGESELLSCHAFT, priority 1997, dated 1999)

How the values were obtained:
Format in all cases: in vivo
[1] = system: Cyperus iria; test: Preemergence weed control under flooded paddy conditions, CYPIR (Rice Flatsedge); details: flooded paddy; for herbicidal effect rating, CYPIR / CYPIR herbicidal rating: rated three to four weeks after treatment; for CYPIR: herbicidal effect rating 0-9, three to four weeks after treatment; as to herbicidal effect rating, CYPIR: meaning of each grade not given here
[2] = system: Cyperus serotinus, Rottb.; test: Preemergence weed control under flooded paddy conditions, CYPSE (Flatsedge); details: for CYPSE: herbicidal effect rating 0-9, three to four weeks after treatment; as to herbicidal effect rating, CYPSE: meaning of each grade not given here
[3] = system: Echinochloa oryzoides (Ard.) Fritsch.; test: Preemergence weed control under flooded paddy conditions, ECHORC (Watergrass (Calif.)); details: flooded paddy; for herbicidal effect rating, ECHORC / ECHORC herbicidal rating: rated three to four weeks after treatment; for ECHORC: herbicidal effect rating 0-9, three to four weeks after treatment; as to herbicidal effect rating, ECHORC: meaning of each grade not given here
[4] = system: Monochoria vaginalis, Presl.; test: Preemergence weed control under flooded paddy conditions, MOOVA (Monochoria); details: flooded paddy; for herbicidal effect rating, MOOVA / MOOVA herbicidal rating: rated three to four weeks after treatment; for MOOVA: herbicidal effect rating 0-9, three to four weeks after treatment; as to herbicidal effect rating, MOOVA: meaning of each grade not given here
[5] = system: Sagittaria pygmaea, L.; test: Preemergence weed control under flooded paddy conditions, SAGPY (Arrowhead (Pygmaea)); details: flooded paddy; for herbicidal effect rating, SAGPY / SAGPY herbicidal rating: rated three to four weeks after treatment; for SAGPY: herbicidal effect rating 0-9, three to four weeks after treatment; as to herbicidal effect rating, SAGPY: meaning of each grade not given here
[6] = Rate 0.0320 kg/ha, preemergence
[7] = Rate 0.0620 kg/ha, preemergence
[8] = Rate 0.1250 kg/ha, preemergence
[9] = Rate 0.2500 kg/ha, preemergence
[10] = Rate 0.0320 kg/ha, preemergence, rated three to four weeks after treatment
[11] = Rate 0.0620 kg/ha, preemergence, rated three to four weeks after treatment
[12] = Rate 0.1250 kg/ha, preemergence, rated three to four weeks after treatment
[13] = Rate 0.2500 kg/ha, preemergence, rated three to four weeks after treatment
[14] = 0.0320 kg/ha, preemergence weeds
[15] = 0.0620 kg/ha, preemergence weeds
[16] = 0.1250 kg/ha, preemergence weeds
[17] = 0.2500 kg/ha, preemergence weeds
[18] = 0.0313 kg/ha, preemergence weeds
[19] = 0.0625 kg/ha, preemergence weeds

CCC(C)S(=O)(=O)NC(=O)c1nsc2ccc(-n3c(=O)cc(C(F)(F)F)n(C)c3=O)cc12 (stereo not shown) [Example 395, 1,2-Benzisothiazole-3-carboxamide, 5-[3,6-dihydro-3-methyl-2,6-dioxo-4-(trifluoromethyl)-1(2H)-pyrimidinyl]-N-[(1-methylpropyl)sulfonyl]-]
herbicidal effect rating, CYPIR [1, 6]: 0.0 | herbicidal effect rating, CYPIR [1, 7]: 0.0 | herbicidal effect rating, CYPIR [1, 8]: 0.0 | herbicidal effect rating, CYPIR [1, 9]: 3.0 | herbicidal effect rating, CYPSE [2, 10]: 0.0 | herbicidal effect rating, CYPSE [2, 11]: 0.0 | herbicidal effect rating, CYPSE [2, 12]: 0.0 | herbicidal effect rating, CYPSE [2, 13]: 0.0 | herbicidal effect rating, ECHORC [3, 6]: 0.0 | herbicidal effect rating, ECHORC [3, 7]: 0.0 | herbicidal effect rating, ECHORC [3, 8]: 2.0 | herbicidal effect rating, ECHORC [3, 9]: 3.0 | herbicidal effect rating, MOOVA [4, 6]: 9.0 | herbicidal effect rating, MOOVA [4, 7]: 9.0 | herbicidal effect rating, MOOVA [4, 8]: 9.0 | herbicidal effect rating, MOOVA [4, 9]: 9.0 | herbicidal effect rating, SAGPY [5, 6]: 0.0 | herbicidal effect rating, SAGPY [5, 7]: 2.0 | herbicidal effect rating, SAGPY [5, 8]: 4.0 | herbicidal effect rating, SAGPY [5, 9]: 5.0

Cn1c(C(F)(F)F)cc(=O)n(-c2ccc3snc(COC(=O)Cc4cccs4)c3c2)c1=O [Example 451, 2,4(1H,3H)-Pyrimidinedione, 3-[3-(hydroxymethyl)-1,2-benzisothiazol-5-yl]-1-methyl-6-(trifluoromethyl)-, 2-thienylacetate (ester)]
CYPIR [1, 14]: 5.0 | CYPIR [1, 15]: 5.0 | CYPIR [1, 16]: 7.0 | CYPIR [1, 17]: 9.0 | CYPSE [2, 15]: 0.0 | CYPSE [2, 17]: 0.0 | ECHORC [3, 14]: 0.0 | ECHORC [3, 15]: 0.0 | ECHORC [3, 16]: 6.0 | ECHORC [3, 17]: 7.0 | MOOVA [4, 14]: 9.0 | MOOVA [4, 15]: 9.0 | MOOVA [4, 16]: 9.0 | MOOVA [4, 17]: 9.0 | SAGPY [5, 14]: 4.0 | SAGPY [5, 15]: 5.0 | SAGPY [5, 16]: 6.0 | SAGPY [5, 17]: 9.0

C=CCONC(=O)c1nsc2ccc(-n3c(=O)cc(C(F)(F)F)n(C)c3=O)cc12 [Example 399, 1,2-Benzisothiazole-3-carboxamide, N-(allyloxy)-5-[3,6-dihydro-3-methyl-2,6-dioxo-4-(trifluoromethyl)-1(2H)-pyrimidinyl]-]
herbicidal effect rating, CYPIR [1, 6]: 0.0 | herbicidal effect rating, CYPIR [1, 7]: 2.0 | herbicidal effect rating, CYPIR [1, 8]: 7.0 | herbicidal effect rating, CYPIR [1, 9]: 8.0 | herbicidal effect rating, CYPSE [2, 10]: 0.0 | herbicidal effect rating, CYPSE [2, 11]: 0.0 | herbicidal effect rating, CYPSE [2, 12]: 0.0 | herbicidal effect rating, CYPSE [2, 13]: 0.0 | herbicidal effect rating, ECHORC [3, 6]: 0.0 | herbicidal effect rating, ECHORC [3, 7]: 0.0 | herbicidal effect rating, ECHORC [3, 8]: 2.0 | herbicidal effect rating, ECHORC [3, 9]: 3.0 | herbicidal effect rating, MOOVA [4, 6]: 6.0 | herbicidal effect rating, MOOVA [4, 7]: 7.0 | herbicidal effect rating, MOOVA [4, 8]: 8.0 | herbicidal effect rating, MOOVA [4, 9]: 9.0 | herbicidal effect rating, SAGPY [5, 6]: 0.0 | herbicidal effect rating, SAGPY [5, 7]: 0.0 | herbicidal effect rating, SAGPY [5, 8]: 0.0 | herbicidal effect rating, SAGPY [5, 9]: 0.0

COC(=O)C=CCOc1ccc(C)cc1-c1nsc2ccc(-n3c(=O)cc(C(F)(F)F)n(C)c3=O)cc12 [Example 188, Methyl 4-{{2-{5-[3,6-dihydro-3-methyl-2,6-dioxo-4-(trifluoromethyl)-1(2H)-pyrimidinyl]-1,2-benzisothiazol-3-yl}-p-tolyl}oxy}-2-butenoate, (E)- and (Z)-]
herbicidal effect rating, CYPIR [1, 18]: 0.0 | herbicidal effect rating, CYPIR [1, 19]: 0.0 | herbicidal effect rating, CYPIR [1, 16]: 0.0 | herbicidal effect rating, CYPIR [1, 17]: 0.0 | herbicidal effect rating, CYPSE ([2]; 0.0313 kg/ha, preemergence weeds, rated three to four weeks after treatment): 0.0 | herbicidal effect rating, ECHORC [3, 18]: 0.0 | herbicidal effect rating, ECHORC [3, 19]: 0.0 | herbicidal effect rating, ECHORC [3, 16]: 2.0 | herbicidal effect rating, ECHORC [3, 17]: 8.0 | herbicidal effect rating, MOOVA [4, 18]: 9.0 | herbicidal effect rating, MOOVA [4, 19]: 9.0 | herbicidal effect rating, MOOVA [4, 16]: 9.0 | herbicidal effect rating, MOOVA [4, 17]: 9.0 | herbicidal effect rating, SAGPY [5, 18]: 0.0 | herbicidal effect rating, SAGPY [5, 19]: 0.0 | herbicidal effect rating, SAGPY [5, 16]: 0.0 | herbicidal effect rating, SAGPY [5, 17]: 0.0

Cn1c(C(F)(F)F)cc(=O)n(-c2ccc3snc(COC(=O)c4ccc(Cl)nc4)c3c2)c1=O [Example 481, 2,4(1H,3H)-Pyrimidinedione, 3-[3-(hydroxymethyl)-1,2-benzisothiazol-5-yl]-1-methyl-6-(trifluoromethyl)-, 6-chloronicotinate (ester)]
CYPIR herbicidal rating ([1]; 0.0320 kg/ha, preemergence): 0.0 | CYPIR herbicidal rating ([1]; 0.0620 kg/ha, preemergence): 2.0 | CYPIR herbicidal rating ([1]; 0.1250 kg/ha, preemergence): 6.0 | CYPIR herbicidal rating ([1]; 0.2500 kg/ha, preemergence): 9.0 | CYPSE herbicidal rating ([2]; 0.2500 kg/ha, preemergence, rated three to four weeks after treatment): 6.0 | ECHORC herbicidal rating ([3]; 0.0320 kg/ha, preemergence): 0.0 | ECHORC herbicidal rating ([3]; 0.0620 kg/ha, preemergence): 2.0 | ECHORC herbicidal rating ([3]; 0.1250 kg/ha, preemergence): 9.0 | ECHORC herbicidal rating ([3]; 0.2500 kg/ha, preemergence): 9.0 | MOOVA herbicidal rating ([4]; 0.0320 kg/ha, preemergence): 6.0 | MOOVA herbicidal rating ([4]; 0.0620 kg/ha, preemergence): 7.0 | MOOVA herbicidal rating ([4]; 0.1250 kg/ha, preemergence): 7.0 | MOOVA herbicidal rating ([4]; 0.2500 kg/ha, preemergence): 9.0 | SAGPY herbicidal rating ([5]; 0.0320 kg/ha, preemergence): 0.0 | SAGPY herbicidal rating ([5]; 0.0620 kg/ha, preemergence): 0.0 | SAGPY herbicidal rating ([5]; 0.1250 kg/ha, preemergence): 0.0

Cn1c(C(F)(F)F)cc(=O)n(-c2ccc3snc(CS(=O)(=O)c4ccccc4)c3c2)c1=O [Example 393, 2,4(1H,3H)-Pyrimidinedione, 1-methyl-3-{3-[(phenylsulfonyl)methyl]-1,2-benzisothiazol-5-yl}-6-(trifluoromethyl)-]
herbicidal effect rating, CYPIR [1, 6]: 0.0 | herbicidal effect rating, CYPIR [1, 7]: 3.0 | herbicidal effect rating, CYPIR [1, 8]: 3.0 | herbicidal effect rating, CYPIR [1, 9]: 6.0 | herbicidal effect rating, CYPSE [2, 10]: 0.0 | herbicidal effect rating, CYPSE [2, 11]: 0.0 | herbicidal effect rating, CYPSE [2, 12]: 3.0 | herbicidal effect rating, CYPSE [2, 13]: 6.0 | herbicidal effect rating, ECHORC [3, 6]: 2.0 | herbicidal effect rating, ECHORC [3, 7]: 4.0 | herbicidal effect rating, ECHORC [3, 8]: 4.0 | herbicidal effect rating, ECHORC [3, 9]: 9.0 | herbicidal effect rating, MOOVA [4, 6]: 7.0 | herbicidal effect rating, MOOVA [4, 7]: 8.0 | herbicidal effect rating, MOOVA [4, 8]: 8.0 | herbicidal effect rating, MOOVA [4, 9]: 9.0 | herbicidal effect rating, SAGPY [5, 6]: 0.0 | herbicidal effect rating, SAGPY [5, 8]: 3.0 | herbicidal effect rating, SAGPY [5, 9]: 4.0

Cn1c(C(F)(F)F)cc(=O)n(-c2ccc3snc(COC(=O)Nc4ccccc4)c3c2)c1=O [Example 375, 2,4(1H,3H)-Pyrimidinedione, 3-[3-(hydroxymethyl)-1,2-benzisothiazol-5-yl]-1-methyl-6-(trifluoromethyl)-, phenylcarbamate (ester)]
herbicidal effect rating, CYPIR [1, 6]: 3.0 | herbicidal effect rating, CYPIR [1, 7]: 4.0 | herbicidal effect rating, CYPIR [1, 8]: 6.0 | herbicidal effect rating, CYPIR [1, 9]: 9.0 | herbicidal effect rating, CYPSE [2, 10]: 0.0 | herbicidal effect rating, CYPSE [2, 11]: 0.0 | herbicidal effect rating, CYPSE [2, 12]: 4.0 | herbicidal effect rating, CYPSE [2, 13]: 7.0 | herbicidal effect rating, ECHORC [3, 6]: 6.0 | herbicidal effect rating, ECHORC [3, 7]: 6.0 | herbicidal effect rating, ECHORC [3, 8]: 9.0 | herbicidal effect rating, ECHORC [3, 9]: 9.0 | herbicidal effect rating, MOOVA [4, 6]: 9.0 | herbicidal effect rating, MOOVA [4, 7]: 9.0 | herbicidal effect rating, MOOVA [4, 8]: 9.0 | herbicidal effect rating, MOOVA [4, 9]: 9.0 | herbicidal effect rating, SAGPY [5, 6]: 7.0 | herbicidal effect rating, SAGPY [5, 7]: 9.0 | herbicidal effect rating, SAGPY [5, 8]: 9.0 | herbicidal effect rating, SAGPY [5, 9]: 9.0
